Test results as given in patent US4921861A, “Pharmaceutical compositions” (BASF Aktiengesellschaft, priority 1987, dated 1990).
Entries after “also recorded” stand apart in the source; their conditions may differ. Where two headings read alike, the source gives them in different places.

What was measured:
[1] = "hot-plate" test; format: in vivo
From the text: (§1) The pharmacological activity of 3-amino-4-ethylthio-quinoline is substantiated by the following tests. As test compound 3-amino-4-ethylthio-quinoline-hydrochloride (referred to further as "Compound A") is used.

[2] = test system: unconditioned avoidance reflex; experiment: modified jumping test; format: in vivo; conditions: 50 and 100 mg p.o.
From the text: as §1

[3] = test system: calypsol narcosis time; experiment: narcosis time of non-barbiturate phenyclidine derivative (calypsol); format: in vivo, rats
[4] = test system: metabolism; experiment: influence on metabolism; format: in vivo; conditions: rats, 100 mg/kg p.o.
From the text: as §1

[5] = test system: benzodiazepine receptors; experiment: displacement of diazepame from benzodiazepine receptors; format: binding
[6] = test system: spasms induced by tetracor; experiment: spasmolytic effect on spasms induced by tetracor; format: in vivo
From the text: as §1

[7] = test system: two-way conditioned avoidance reflex; experiment: shuttle box (two-way conditioned avoidance reflex); format: in vivo; conditions: rats, 100 mg/kg p.o.
From the text: as §1

[8] = test system: spontaneous motility; experiment: spontaneous motility; format: in vivo; conditions: rats
From the text: as §1

[9] = test system: hexobarbital narcosis time; experiment: narcosis potentiating effect, hexobarbital narcosis; format: in vivo, rats; conditions: compared with inactine
From the text: as §1
(§2) The narcosis potentiating effect of Compound A (on rats) is very strong if inactine is used.

[10] = test system: rats; experiment: algolytic test; format: in vivo
From the text: as §1
Compound A is ineffective in the algolytic test (on rats).

[11] = test system: rats; experiment: conflict test: anxiolytic (punished) and sedative (unpunished) effect on water consumption; format: in vivo, Male CFY rats; conditions: for water uptake, without electric current / water uptake, with electric current: 0.5 hour; for minimal effective dose: Rattus norvegicus, sc, s.c.
Method: as §1
Anxiolytic and sedative effects are studied according to the following conflict test. […] On the other hand, sedative effect can be observed but in a dose of 25 mg/kg. Thus the ratio of the anxiolytic and sedative doses amounts to 25,000: 2.5=10,000. The same value of chlordiazepoxide is 10:0.1=100. It appears that in the case of Compound A the dissociation between the sedative and anxiolytic doses is extremely high.
The essential strategy for measuring the anti-anxiety effect of a drug is to check its activity in a conflict situation. We elicit a rewarded response, then suppress that response by punishing it when it occurs and the anti-anxiety effect is measured by the drug-induced increase in punished responding, whereas the sedative effect is measured by the drug-induced decrease of unpunished responding.
A rat, deprived of food for 96 hours and supplied with water ad libitum, drinks about 7 ml water during the 4th day of food deprivation, but needs 35 ml water daily when supplied with dry food [for review see Knoll, J. J., Neural Transm. 59, 163-194 (1984)]. This means that when we circuit the drinking tube and the grid floor of the cage and the rat is regularly shocked by trying to drink, the very hungry animal, which cannot eat without drinking, is maximally forced to overcome the hindrance. This is a sensitive test to check the anti-anxiety effect of a compound.
Male CFY rats, weighing 230-250 g, fed with standard food pellets and supplied with tap water ad libitum, were kept under controlled standard environmental conditions (room temperature between 22°-24° C.) in groups of ten for two weeks until used in the experiment. The rats kept in single cages during starvation were deprived of food for 96 hours and supplied with tap water ad libitum before the experiment.
Another aspect of the selection of the animals for the experiment was their visible physical fitness and normal activity after starvation. Less than 10 percent of the rats were excluded from the experiment because of insufficient physical fitness.
A clear Plexiglass box (39×27×12 cm) with a stainless-steel grid floor supplied with a tray for the food pellets and with a drinking tube was used for the experiment. The grid floor, the drinking tube and an electric stimulator (Grass S48) were connected and electric shocks in this circuit were delivered for 10 s duration with 20 s intervals. The parameters of the current (100V; 25 ohm; 7.5 ms; 5 Hz) were empirically selected using those electric shocks which inhibited the water consumption of the very hungry rats to one third of the control (unpunished) level.
The rats spend one hour in the apparatus after 96 hours of food deprivation. The very hungry rats eat 5-6 g of food pellets during the first hour of the feeding period after the long starvation. […] In the punished situation the consumption was reduced to less than 3 ml.
The drugs were administered parenterally in doses of 0.5 ml/100 g body weight. We refrained from the oral administration of the compounds because of the long term food deprivation.

[12] = acute toxicity (LD50); conditions: rat, in vivo, rats
From the text: as §1

[13] = test system: one-way conditioned avoidance; experiment: one-way conditioned avoidance test (screening test I); format: in vivo; conditions: 100 mg/kg p.o.
From the text: as §1

[14] = test system: inactine narcosis time; experiment: narcosis potentiating effect, inactine narcosis; format: in vivo, rats
From the text: as §1, §2

## CCSc1c(N)cnc2ccccc12.Cl [Compound A, 3-amino-4-ethylthio-quinoline-hydrochloride]
[1]; oral
  ED50: 49 mg/kg
[1]; sc
  ED50: 40 mg/kg
[2]
  inhibition of the unconditioned avoidance reflex: does not inhibit
[3]
  effect on narcosis time of calypsol: does not lengthen the narcosis time
[4]
  influence on metabolism: does not influence metabolism
[5]
  displacement of diazepame from the benzodiazepine receptors: displaces diazepame from the benzodiazepine receptors
[6]; 25 and 100 mg/kg p.o.
  spasmolytic effect on spasms induced by tetracor: no spasmolytic effect
[7]
  inhibition of learning ability: inhibits learning ability on rats significantly
[8]; 25 mg/kg
  inhibition of spontaneous motility: inactive
[8]; 50 and 100 mg/kg p.o.
  inhibition of spontaneous motility: moderately in a dose-independant manner
[9]
  prolongation of hexobarbital narcosis time: to a much weaker extent
[10]
  activity in the algolytic test: ineffective
[11]; 0.25 mg/kg s.c., 10 animals
  water uptake, without electric current: 6.1 ± 0.46 mL
[11]; 0.25 mg/kg s.c., 10 animals, p < 0.05
  water uptake, with electric current: 3.3 ± 0.45 mL
[11]; 5 mg/kg s.c., 10 animals
  water uptake, without electric current: 7.2 ± 0.37 mL
[11]; 10 mg/kg s.c., 10 animals
  water uptake, without electric current: 6.9 ± 0.43 mL
[11]; 25 mg/kg s.c., 7 animals, p < 0.01
  water uptake, without electric current: 3.4 ± 0.60 mL
[11]; 2.5 γ/kg s.c., 10 animals, p < 0.05
  water uptake, with electric current: 3.4 ± 0.43 mL
[11]; 5 γ/kg s.c., 10 animals, p < 0.001
  water uptake, with electric current: 4.1 ± 0.66 mL
[11]; 10 γ/kg s.c., 10 animals
  water uptake, with electric current: 2.7 ± 0.33 mL
[11]; 25 γ/kg s.c., 10 animals
  water uptake, with electric current: 2.8 ± 0.38 mL
[11]; with electric current, read-out: dose significantly increasing water consumption punished by trains of electric shock (anxiolytic dose)
  minimal effective dose: 0.0025 mg/kg
[11]; without electric current, read-out: dose at which sedative effect can be observed
  minimal effective dose: 25 mg/kg
[11]; general statement
  anxiolytic effect: extremely active anxiolytic agent
[11]
  ratio of the anxiolytic and sedative doses: 10,000
[12]; sc
  LD50: 320 mg/kg
[12]; oral
  LD50: 420 mg/kg
[13]
  inhibiting effect in one-way conditioned avoidance test: very weak inhibiting effect
[14]; p.o., rats
  ED500 (dose which causes a five-fold prolongation of the inactine narcosis time): 3.4 mg/kg
[14]; rats, inactine
  narcosis potentiating effect: very strong
[14]; s.c., rats
  ED500 (dose which causes a five-fold prolongation of the inactine narcosis time): 3.5 mg/kg

## CCSc1c(N)cnc2ccccc12 [3-amino-4-ethylthio-quinoline]
[6]; general statement
  anticonvulsive effect: devoid of sedative and anticonvulsive effects
[11]; general statement
  anxiolytic effect: particularly potent anxiolytic; also recorded: highly selective anxiolytic effect
  sedative effect: devoid of sedative
[14]; general statement
  narcosis potentiating effect: particularly potent anxiolytic and narcosis potentiating effect

## CNC1=Nc2ccc(Cl)cc2C(c2ccccc2)=[N+]([O-])C1 [chlordiazepoxide, reference compound]
[11]
  ratio of the anxiolytic and sedative doses: 100
